Test results published in patent US11052072B2, “Pyrazolo[4,3-C] quinoline derivatives for inhibition of β-glucuronidase” (Kaohsiung Medical University, priority 2015, dated 2021).
Counter-ions that a name gives are not always drawn.

How the values were obtained:
[1] = biological target: T1, human liver-glucuronidase (hβG) (Homo sapiens, UniProt P08236); test: Inhibition of purified recombinant hβG activity (pNPG substrate, OD420); format: biochemical; settings: 10 μM; purified recombinant hβG, pNPG; means ± S.D. of at least three separate experiments; read-out: Percent activity of human liver-glucuronidase at 10 μM (%)
T1 sequence (P08236 23-651): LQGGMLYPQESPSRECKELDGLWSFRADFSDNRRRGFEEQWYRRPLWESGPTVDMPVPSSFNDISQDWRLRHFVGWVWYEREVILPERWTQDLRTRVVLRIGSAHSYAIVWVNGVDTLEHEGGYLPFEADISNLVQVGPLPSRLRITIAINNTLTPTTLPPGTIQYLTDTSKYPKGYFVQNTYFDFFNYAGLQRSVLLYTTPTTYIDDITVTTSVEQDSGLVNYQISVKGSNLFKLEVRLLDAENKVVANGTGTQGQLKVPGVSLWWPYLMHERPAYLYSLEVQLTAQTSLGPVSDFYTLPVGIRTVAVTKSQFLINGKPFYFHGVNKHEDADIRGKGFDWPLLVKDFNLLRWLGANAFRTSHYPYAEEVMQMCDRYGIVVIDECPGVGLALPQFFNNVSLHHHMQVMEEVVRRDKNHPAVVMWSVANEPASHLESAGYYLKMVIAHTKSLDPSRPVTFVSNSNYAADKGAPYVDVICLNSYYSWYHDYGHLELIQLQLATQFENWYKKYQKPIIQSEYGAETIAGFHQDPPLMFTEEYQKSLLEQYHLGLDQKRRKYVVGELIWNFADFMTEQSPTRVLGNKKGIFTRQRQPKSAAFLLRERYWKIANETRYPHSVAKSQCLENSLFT
Procedure: (§1) The pyrazolo[4,3-c]quinoline derivatives were examined for their inhibition against eβG or hβG activity. Purified recombinant eβG or hβG proteins were incubated with serial dilution of the inhibitors, respectively. The βG activity was determined by color development of a βG substrate, pNPG. The hydrolysis product of pNPG, PNP was measured by OD420.

[2] = biological target: E. coli β-glucuronidase (eβG) (Escherichia coli, UniProt P05804); test: Inhibition of purified recombinant eβG activity (pNPG substrate, OD420); format: biochemical; settings: for remaining activity at 10 µM: read-out: Percent activity of E. coli-glucuronidase at 10 μM (%)
Chain of E. coli β-glucuronidase (eβG) (P05804 whole entry): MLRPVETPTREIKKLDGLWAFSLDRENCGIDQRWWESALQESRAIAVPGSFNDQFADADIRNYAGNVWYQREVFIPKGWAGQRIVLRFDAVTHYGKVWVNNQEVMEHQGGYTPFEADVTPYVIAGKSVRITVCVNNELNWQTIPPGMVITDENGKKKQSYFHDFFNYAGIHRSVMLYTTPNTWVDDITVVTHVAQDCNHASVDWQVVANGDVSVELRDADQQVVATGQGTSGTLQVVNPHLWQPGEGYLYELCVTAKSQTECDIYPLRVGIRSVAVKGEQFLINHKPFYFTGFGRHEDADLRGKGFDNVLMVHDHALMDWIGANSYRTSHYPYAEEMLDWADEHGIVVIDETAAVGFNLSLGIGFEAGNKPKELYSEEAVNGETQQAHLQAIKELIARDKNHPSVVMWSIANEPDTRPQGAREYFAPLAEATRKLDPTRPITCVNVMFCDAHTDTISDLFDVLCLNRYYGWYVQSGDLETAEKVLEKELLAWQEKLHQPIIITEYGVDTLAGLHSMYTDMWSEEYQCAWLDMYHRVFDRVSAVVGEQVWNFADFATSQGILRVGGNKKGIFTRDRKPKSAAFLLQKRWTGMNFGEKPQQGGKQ
Procedure: as §1

endogenous eβG activity = biological target: T2, endogenous eβG activity (Escherichia coli, UniProt P05804); test: Endogenous β-glucuronidase activity assay in BL21 E. coli cells; format: cell-based; settings: at both low (10 μM) or high concentration (50 μM) (FIG. 2)
T2 construct: endogenous in cells; host or cells: BL21 E. coli
T2 sequence (P05804 whole entry): as above
Procedure: The pyrazolo[4,3-c]quinoline derivatives were examined for their inhibition against endogenous eβG activity. This assay is similar with the in vitro assay. BL21 E. coli cells were grown to an OD600 of 0.35 in LB medium. E. coli were 4 times diluted and incubated with each inhibitor. The endogenous eβG activity was measured by detecting PNP as described.

Row | SMILES | melting point | remaining activity at 10 µM [1] | remaining activity at 10 µM [2] | Inhibition efficacy of endogenous eβG activity compared with βG-Inh (endogenous eβG activity) | Inhibition efficacy of eβG activity compared with βG-Inh ([2]; FIG. 1) | Selective inhibition of eβG versus hβG (in words) ([2]; recombinant eβG and hβG, serial dilution of inhibitors (FIG. 1))
1 | Nc1n[nH]c2c1c(Nc1cccc(Cl)c1)nc1ccccc12 [Compound 26, N^4-(3-Chlorophenyl)-1H-pyrazolo[4,3-c]quinoline-3,4-diamine] | 227 to 229 °C | 97.78 ± 0.01% | 14.9 ± 2.31% | – | – | –
2 | Nc1n[nH]c2c1c(Nc1ccccc1Cl)nc1ccccc12 [Compound 31, N^4-(2-Chlorophenyl)-1H-pyrazolo[4,3-c]quinoline-3,4-diamine] | 243 to 244 °C | 79.81 ± 0.01% | 29.7 ± 3% | – | – | –
3 | COc1ccc(Nc2nc3ccccc3c3[nH]nc(N)c23)cc1 [Compound 19, 3-Amino-4-(4-methoxyphenylamino)-1H-pyrazolo[4,3-c]quinoline] | 228 to 230 °C | 102 ± 2.12% | 3 ± 1% | – | – | –
4 | COc1ccc(NC(=O)Nc2n[nH]c3c2c(Nc2ccc(C)cc2)nc2ccccc23)cc1 [Compound 39, 1-(4-Methoxyphenyl)-3-[4-(p-tolylamino)-1H-pyrazolo[4,3-c]-quinolin-3-yl]urea] | 163 to 164 °C | 87.5 ± 2.12% | 3.5 ± 0.71% | – | – | –
5 | COc1ccc(NC(=O)Nc2n[nH]c3c2c(=O)[nH]c2ccccc23)cc1 [Compound 35, 1-(4-Methoxyphenyl)-3-(4-oxo-4,5-dihydro-1H-pyrazolo[4,3-c]-quinolin-3-yl)urea] | 224 to 225 °C | 81.5 ± 0.71% | 52 ± 4.24% | – | – | –
6 | Nc1n[nH]c2c1c(Nc1ccccc1)nc1ccccc12 [Compound 14, 3-Amino-4-anilino-1H-pyrazolo[4,3-c]quinoline] | 256 to 258 °C | 105.5 ± 0.71% | 4 ± 1% | – | – | –
7 | Nc1n[nH]c2c1c(Nc1ccc(C(F)(F)F)cc1)nc1ccccc12 [Compound 18, 3-Amino-4-(4-trifluoromethylphenylamino)-1H-pyrazolo[4,3-c]quinoline] | 251 to 252 °C | 106 ± 2.83% | 4.5 ± 0.71% | – | – | –
8 | O=C(Nc1ccccc1)Nc1n[nH]c2c1c(Nc1ccc(Cl)cc1)nc1ccccc12 [Compound 36, 1-{4-[(4-Chlorophenyl)amino]-1H-pyrazolo[4,3-c]quinolin-3-yl}-3-phenylurea] | 282 to 283 °C | 83.1 ± 1.29% | 4 ± 1% | – | – | –
9 | Nc1n[nH]c2c1c(Nc1ccccc1O)nc1ccccc12 [Compound 29, 3-Amino-4-(2-hydroxyphenylamino)-1H-pyrazolo[4,3-c]quinoline] | 156 to 157 °C | 104 ± 2.12% | 7 ± 1% | – | – | –
10 | Cc1cccc(Nc2nc3ccccc3c3[nH]nc(N)c23)c1 (as salt: salt) [Compound 25, N^4-(m-Tolyl)-1H-pyrazolo[4,3-c]quinoline-3,4-diamine] | 281 to 282 °C | – | – | – | – | –
11 | Cc1ccc(Nc2nc3ccccc3c3[nH]nc(NC(=O)Nc4ccccc4)c23)cc1 [Compound 37, 1-Phenyl-3-[4-(p-tolylamino)-1H-pyrazolo[4,3-c]quinolin-3-yl]urea] | 212 to 213 °C | 82 ± 1.41% | 3 ± 1% | – | – | –
12 | Cc1ccc(Nc2nc3ccc(Cl)cc3c3[nH]nc(N)c23)cc1 (as salt: salt) [Compound 11, 8-Chloro-N^4-(p-tolyl)-1H-pyrazolo[4,3-c]quinoline-3,4-diamine] | 261 °C | – | – | – | – | –
13 | Nc1n[nH]c2c1c(Nc1ccc(O)cc1)nc1ccccc12 [Compound 15, 3-Amino-4-(4-hydroxyphenylamino)-1H-pyrazolo[4,3-c]quinoline] | 347 to 349 °C | 95 ± 4.24% | 7 ± 1% | – | – | –
14 | Nc1n[nH]c2c1c(Nc1ccc(Cl)cc1)nc1cc(F)ccc12 [Compound 8, N^4-(4-Chlorophenyl)-7-fluoro-1H-pyrazolo[4,3-c]quinoline-3,4-diamine] | 254 °C (dec.) | 83.5 ± 0.71% | 4 ± 1% | – | – | –
15 | Cc1cccc2c1nc(Nc1ccc(Cl)cc1)c1c(N)n[nH]c12 [Compound 6, N^4-(4-Chlorophenyl)-6-methyl-1H-pyrazolo[4,3-c]quinoline-3,4-diamine] | 249 to 250 °C | 78.5 ± 0.71% | 6 ± 1% | – | – | –
16 | Nc1n[nH]c2c1c(Nc1ccc(C(=O)O)cc1)nc1ccccc12 (as salt: salt) [Compound 22, 4-(3-Amino-1H-pyrazolo[4,3-c]quinolin-4-ylamino)benzoic acid] | 362 to 364 °C | – | – | – | – | –
17 | COc1cccc(Nc2nc3ccccc3c3[nH]nc(N)c23)c1 [Compound 27, 3-Amino-4-(3-methoxyphenylamino)-1H-pyrazolo[4,3-c]quinoline] | 184 to 186 °C | 107 ± 1.41% | 8 ± 1.41% | – | – | –
18 | Nc1n[nH]c2c1c(Nc1ccc(Cl)cc1)nc1ccc(Cl)cc12 (as salt: salt) [Compound 10, 8-Chloro-N^4-(4-chlorophenyl)-1H-pyrazolo[4,3-c]quinoline-3,4-diamine] | 270 to 272 °C | – | – | – | – | –
19 | Nc1n[nH]c2c1c(Nc1ccc(Cl)cc1)nc1ccc(Br)cc12 [Compound 12, 8-Bromo-N^4-(4-chlorophenyl)-1H-pyrazolo[4,3-c]quinoline-3,4-diamine] | 264 °C (dec.) | 79.3 ± 2.63% | 5 ± 1% | – | – | –
20 | Cc1ccc(Nc2nc3cc(F)ccc3c3[nH]nc(N)c23)cc1 (as salt: salt) [Compound 9, 7-Fluoro-N^4-(p-tolyl)-1H-pyrazolo[4,3-c]quinoline-3,4-diamine] | 246 to 247 °C | – | – | – | – | –
21 | Nc1n[nH]c2c1c(Nc1ccc(Cl)cc1)nc1ccccc12 [Compound 4, 3-Amino-4-(4-chlorophenylamino)-1H-pyrazolo[4,3-c]quinoline] | 246 to 248 °C | 113 ± 2.83% | 4.5 ± 0.71% | better inhibition efficacy of endogenous eβG activity than βG-Inh | better inhibition efficacy of eβG activity than βG-Inh | selectively inhibited eβG activity but not hβG
22 | COc1ccc(NC(=O)Nc2n[nH]c3c2c(Nc2ccc(Cl)cc2)nc2ccccc23)cc1 [Compound 38, 1-{4-[(4-Chlorophenyl)amino]-1H-pyrazolo[4,3-c]quinolin-3-yl}-3-(4-methoxyphenyl)urea] | 211 to 212 °C | 85.5 ± 0.71% | 4 ± 1% | – | – | –
23 | CC(=O)c1cccc(Nc2nc3ccccc3c3[nH]nc(N)c23)c1 [Compound 28, 3-Amino-4-(3-acetylphenylamino)-1H-pyrazolo[4,3-c]quinoline] | > 380 °C | 93 ± 2.83% | 91 ± 1% | – | – | –
24 | Nc1ccc(Nc2nc3ccccc3c3[nH]nc(N)c23)cc1 [Compound 16, 3-Amino-4-(4-aminophenylamino)-1H-pyrazolo[4,3-c]quinoline] | 355 to 356 °C | 82.5 ± 3.54% | 8 ± 1% | – | – | –
25 | Cc1ccccc1Nc1nc2ccccc2c2[nH]nc(N)c12 [Compound 30, N^4-(o-Tolyl)-1H-pyrazolo[4,3-c]quinoline-3,4-diamine] | 228 to 230 °C | 95.69 ± 0.01% | 17 ± 2.1% | – | – | –
26 | Cc1ccc(Nc2nc3c(C)cccc3c3[nH]nc(N)c23)cc1 [Compound 7, 6-Methyl-N^4-(p-tolyl)-1H-pyrazolo[4,3-c]quinoline-3,4-diamine] | 270 to 271 °C | 74 ± 1% | 3 ± 1% | – | – | –
